Results taken from DBAASP.
In brackets after ≈: the same amount, converted by molar mass. Several values for one entry are separate records, joined by “and”; a condition that tells them apart may be missing. Identical values can stand only once.

Tests used:
Assay in all cases: ≥ marks a high value that may be exact or a test limit, other limits are often not marked, values filed in µg/mL are converted to µM
[1] = system: Candida albicans ATCC 20032
[2] = system: Staphylococcus aureus ATCC 25923
[3] = system: Listeria monocytogenes EGD
[4] = system: Escherichia coli ML-35p
[5] = system: Yersinia pseudotuberculosis YPIII
[6] = system: Escherichia coli ATCC 25922
[7] = system: Candida albicans ATCC 10231
[8] = system: Staphylococcus aureus Cowan 1
[9] = system: Staphylococcus capitis 1
[10] = system: Bacillus megaterium Bm11
[11] = system: Pseudomonas aeruginosa Ps4
[12] = system: Candida albicans
[13] = system: Pseudomonas aeruginosa PAO1
[14] = system: Escherichia coli MG1655
[15] = system: Staphylococcus aureus
[16] = system: Staphylococcus haemolyticus
[17] = system: Bacillus subtilis ATCC 6633
[18] = system: Escherichia coli W3110
[19] = system: Klebsiella pneumoniae ATCC BAA-1705
[20] = system: Escherichia coli UB1005
[21] = system: Enterococcus faecalis ATCC 29212
[22] = system: Staphylococcus epidermidis C621
[23] = system: Pseudomonas aeruginosa ATCC 27853

CC[C@H](C)[C@@H]1NC(=O)[C@H](CO)NC(=O)[C@H](CCCCN)NC(=O)[C@H]([C@@H](C)O)NC(=O)[C@H](Cc2c[nH]c3ccccc23)NC(=O)[C@@H](NC(=O)CNC(=O)[C@H](CCCN=C(N)N)NC(=O)[C@H](CC(C)C)NC(=O)[C@H](C)NC(=O)[C@H](C)N)CSSC[C@@H](C(=O)N[C@@H](CO)C(=O)NCC(=O)N[C@@H](CCCCN)C(=O)N[C@@H](CCCN=C(N)N)C(=O)O)NC(=O)[C@@H]2CCCN2C(=O)[C@H](CCCCN)NC(=O)[C@@H]2CCCN2C(=O)[C@@H]2CCCN2C1=O [AALRGCWTKSIPPKPCSGKR]
MIC [1]: 23.1 µM (≈ 49.8 µg/mL)
MIC [2]: 5.8 µM (≈ 12.5 µg/mL)

CC[C@H](C)[C@@H]1NC(=O)[C@H](CCCN=C(N)N)NC(=O)[C@@H]2CSSC[C@@H]3NC(=O)[C@H]([C@@H](C)O)NC(=O)CNC(=O)[C@H](Cc4ccc(O)cc4)NC(=O)[C@H](CCCN=C(N)N)NC(=O)[C@H](CCCN=C(N)N)NC(=O)[C@H](CCC(=O)O)NC(=O)CNC(=O)[C@H](C)NC(=O)[C@H](Cc4ccccc4)NC(=O)[C@H](CSSC[C@H](NC(=O)[C@H](Cc4ccccc4)NC(=O)[C@H](C)NC(=O)[C@H](Cc4c[nH]c5ccccc45)NC(=O)[C@H](C(C)C)NC(=O)[C@H](CCCN=C(N)N)NC(=O)CNC(=O)[C@H](CC(C)C)NC(=O)[C@H](Cc4ccc(O)cc4)NC(=O)[C@H](Cc4ccccc4)NC3=O)C(=O)N[C@H](C(=O)O)CSSC[C@H](NC(=O)[C@H](C)N)C(=O)N[C@@H](Cc3ccc(O)cc3)C(=O)N2)NC(=O)[C@H](C)NC(=O)[C@@H]2CCCN2C1=O [ACYCRIPACFAGERRYGTCFYLGRVWAFCC]
MIC [3]: 2.2 µM and 1.8 µM
MIC [4]: 2.4 µM and 7.1 µM

CC[C@H](C)[C@H](NC(=O)CNC(=O)[C@H](CO)NC(=O)[C@H](CC(C)C)NC(=O)[C@@H](NC(=O)[C@H](CCCN=C(N)N)NC(=O)[C@H](C)NC(=O)[C@@H](NC(=O)[C@H](CC(C)C)NC(=O)[C@@H]1CCCN1C(=O)[C@H](CC(C)C)NC(=O)[C@@H](N)Cc1ccccc1)[C@@H](C)CC)C(C)C)C(=O)N[C@@H](CC(C)C)C(N)=O [FLPLIARVLSGIL]
MIC [5]: 20 µM (≈ 28.2 µg/mL)
MIC [6]: > 40 µM
MIC [7]: 2.5 µM (≈ 3.53 µg/mL)
MIC [8]: 2.5 µM (≈ 3.53 µg/mL)
MIC [9]: 5 µM (≈ 7.05 µg/mL)
MIC [10]: 2.5 µM (≈ 3.53 µg/mL)

CC[C@H](C)[C@H](NC(=O)[C@H](CCCN=C(N)N)NC(=O)[C@@H](NC(=O)[C@H](CC(N)=O)NC(=O)[C@H](CCCN=C(N)N)NC(=O)[C@H](CCC(N)=O)NC(=O)[C@H](Cc1c[nH]c2ccccc12)NC(=O)[C@@H](N)Cc1ccccc1)[C@@H](C)CC)C(=O)N[C@@H](CCCN=C(N)N)C(=O)N[C@@H](CCCN=C(N)N)C(N)=O [FWQRNIRIRR]
MIC [6]: 86.5 µM (≈ 125 µg/mL)
MIC [11]: ≥ 173 µM

CSCC[C@H](NC(=O)[C@@H](NC(=O)[C@H](CCCCN)NC(=O)[C@H](C)NC(=O)[C@H](CC(C)C)NC(=O)CN)C(C)C)C(=O)N[C@@H](CCCN=C(N)N)C(=O)N[C@@H](CCCCN)C(=O)N[C@H](C(=O)N[C@@H](CC(C)C)C(=O)NCC(=O)N[C@@H](Cc1ccc(O)cc1)C(=O)N[C@@H](CC(C)C)C(=O)N[C@@H](CCCN=C(N)N)C(=O)N[C@@H](CC(N)=O)C(=O)N[C@H](C(=O)N[C@@H](Cc1ccc(O)cc1)C(=O)N[C@@H](CCCCN)C(N)=O)C(C)C)C(C)C [GLAKVMRKVLGYLRNVYK]
MIC [12]: 22.6 µM (≈ 47.7 µg/mL)
MIC [13]: 8 µM (≈ 16.9 µg/mL)
MIC [2]: 5.66 µM (≈ 11.9 µg/mL)
MIC [14]: 2.83 µM (≈ 5.96 µg/mL)

CC(C)C[C@H](NC(=O)CNC(=O)CNC(=O)[C@H](C)NC(=O)[C@@H](NC(=O)[C@H](CC(N)=O)NC(=O)[C@H](CC(C)C)NC(=O)[C@H](CC(C)C)NC(=O)[C@H](CC(=O)O)NC(=O)[C@@H](NC(=O)[C@@H](NC(=O)[C@@H](NC(=O)CN)C(C)C)C(C)C)[C@@H](C)O)[C@@H](C)O)C(=O)N[C@@H](CC(C)C)C(=O)NCC(=O)N[C@@H](CC(N)=O)C(=O)N[C@@H](CC(C)C)C(=O)N[C@H](C(=O)NCC(=O)N[C@@H](CO)C(=O)N[C@@H](CC(C)C)C(=O)N[C@@H](CO)C(=O)NCC(N)=O)C(C)C [GVVTDLLNTAGGLLGNLVGSLSG]
MIC [15]: 300 µM (≈ 638 µg/mL)
MIC [16]: ≥ 400 µM

CC[C@H](C)[C@H](N)C(=O)N[C@@H](CC(C)C)C(=O)NCC(=O)N1CCC[C@H]1C(=O)N[C@H](C(=O)N[C@H](C(=O)N[C@@H](CO)C(=O)N[C@H](C(=O)N[C@H](C(=O)NCC(=O)N[C@@H](CC(N)=O)C(=O)N[C@@H](C)C(=O)N[C@@H](CC(C)C)C(=O)NCC(=O)NCC(=O)N[C@@H](CC(C)C)C(=O)N[C@@H](CC(C)C)C(=O)N[C@@H](CCCCN)C(=O)N[C@@H](CC(N)=O)C(=O)N[C@@H](CC(C)C)C(N)=O)[C@@H](C)CC)[C@@H](C)O)[C@@H](C)CC)C(C)C [ILGPVISTIGNALGGLLKNL]
MIC [1]: ≥ 50.9 µM
MIC [6]: > 50.9 µM
MIC [2]: > 50.9 µM
MIC [17]: ≥ 50.9 µM

CC[C@H](C)[C@H](N)C(=O)N[C@@H](CC(C)C)C(=O)NCC(=O)N1CCC[C@H]1C(=O)N[C@H](C(=O)N[C@@H](CC(C)C)C(=O)NCC(=O)N[C@@H](CC(C)C)C(=O)N[C@H](C(=O)N[C@@H](CO)C(=O)N[C@@H](CC(N)=O)C(=O)N[C@@H](C)C(=O)N[C@@H](CC(C)C)C(=O)NCC(=O)NCC(=O)N[C@@H](CC(C)C)C(=O)N[C@@H](CC(C)C)C(N)=O)C(C)C)C(C)C [ILGPVLGLVSNALGGLL]
MIC [1]: ≥ 62.3 µM
MIC [6]: > 62.3 µM
MIC [2]: > 62.3 µM
MIC [17]: ≥ 62.3 µM

CC[C@H](C)[C@H](N)C(=O)N[C@@H](Cc1c[nH]c2ccccc12)C(=O)N[C@@H](Cc1c[nH]c2ccccc12)C(=O)N[C@@H](C)C(=O)N[C@@H](CCCCN)C(=O)N[C@@H](CC(C)C)C(=O)NCC(=O)N[C@@H](CC(C)C)C(=O)N[C@@H](CCCCN)C(=O)N[C@@H](CC(C)C)C(=O)N[C@@H](CC(C)C)C(=O)N[C@@H](CCCN=C(N)N)C(=O)N[C@@H](Cc1ccc(O)cc1)C(=O)N[C@@H](CCCN=C(N)N)C(=O)N[C@@H](CCCN=C(N)N)C(=O)N[C@@H](Cc1c[nH]c2ccccc12)C(=O)N[C@@H](Cc1ccc(O)cc1)C(=O)O [IWWAKLGLKLLRYRRWY]
MIC [18]: 2 µM (≈ 4.64 µg/mL)
MIC [19]: 4 µM (≈ 9.29 µg/mL)

CC[C@H](C)[C@H](N)C(=O)N[C@@H](Cc1c[nH]c2ccccc12)C(=O)N[C@@H](Cc1c[nH]c2ccccc12)C(=O)N[C@@H](C)C(=O)N[C@@H](CCCCN)C(=O)N[C@@H](Cc1c[nH]c2ccccc12)C(=O)NCC(=O)N[C@@H](CC(C)C)C(=O)N[C@@H](CCCCN)C(=O)N[C@@H](CC(C)C)C(=O)N[C@@H](CC(C)C)C(=O)N[C@@H](CCCN=C(N)N)C(=O)N[C@@H](Cc1ccc(O)cc1)C(=O)N[C@@H](CCCN=C(N)N)C(=O)N[C@@H](CCCN=C(N)N)C(=O)N[C@H](C(=O)N[C@@H](Cc1c[nH]c2ccccc12)C(=O)O)[C@@H](C)CC [IWWAKWGLKLLRYRRIW]
MIC [18]: 4 µM (≈ 9.38 µg/mL)
MIC [19]: ≥ 32 µM

C[C@H](NC(=O)[C@H](C)NC(=O)[C@H](C)NC(=O)[C@H](CCCCN)NC(=O)[C@@H](N)CCCCN)C(=O)N[C@@H](C)C(=O)N[C@@H](Cc1ccccc1)C(=O)N[C@@H](C)C(=O)N[C@@H](C)C(=O)N[C@@H](Cc1ccccc1)C(=O)N[C@@H](C)C(=O)N[C@@H](C)C(=O)N[C@@H](Cc1c[nH]c2ccccc12)C(=O)N[C@@H](Cc1ccccc1)C(=O)N[C@@H](C)C(=O)N[C@@H](C)C(=O)N[C@@H](Cc1ccccc1)C(=O)N[C@@H](C)C(=O)N[C@@H](C)C(=O)N[C@@H](C)C(=O)N[C@@H](C)C(=O)N[C@@H](CCCCN)C(=O)N[C@@H](CCCCN)C(=O)N[C@@H](CCCCN)C(=O)N[C@@H](CCCCN)C(N)=O [KKAAAAFAAFAAWFAAFAAAAKKKK]
MIC [6]: 16 µM (≈ 40.9 µg/mL)
MIC [20]: 8 µM (≈ 20.4 µg/mL)
MIC [2]: 32 µM (≈ 81.8 µg/mL)
MIC [21]: > 32 µM
MIC [22]: 4 µM (≈ 10.2 µg/mL)
MIC [17]: 2 µM (≈ 5.11 µg/mL)
MIC [23]: 8 µM (≈ 20.4 µg/mL)

CC[C@H](C)[C@H](NC(=O)[C@H](CC(N)=O)NC(=O)[C@H](CCCN=C(N)N)NC(=O)[C@H](CCC(N)=O)NC(=O)[C@H](Cc1c[nH]c2ccccc12)NC(=O)[C@@H](N)CCCCN)C(=O)N[C@@H](CCCN=C(N)N)C(=O)N[C@@H](CCCCN)C(=O)N[C@H](C(=O)N[C@@H](CCCN=C(N)N)C(=O)N[C@@H](CCCN=C(N)N)C(N)=O)C(C)C [KWQRNIRKVRR]
MIC [11]: ≥ 162 µM
